Assay results from US8617534B2, “Compositions and method for manipulating PIM-1 activity in circulatory system cells” (San Diego State University (SDSU) Foundation, priority 2007, dated 2013).
Entries after “also recorded” stand apart in the source; their conditions may differ.

Legend:
[1] = system: PIM-1; test: PIM-1 expression in cultured cardiomyocytes (immunoblot, confocal microscopy); assay type: cell-based, rat; conditions: for PIM-1 protein level (immunoblot): 2 hour exposure; for induction of PIM-1 expression / PIM-1 immunoreactivity by confocal microscopy: treatment for 2 hours; for PIM-1 immunoreactivity by confocal microscopy: compared to control cells
Experimental: Neonatal Rat Cardiomyocyte Cultures infections and treatments. Neonatal rat cardiomyocyte cultures were prepared as described previously^12. Cells to be subjected to treatments were placed in media with 2% serum overnight and then treated with the appropriate agent and harvested or fixed after the pre-described timepoint. Cardiomyocytes were infected with adenovirus for two hours, washed in PBS and then re-fed M199 with 2% FBS and 50 μg/ml pen/strep, and 100 μM glutamine.
Immunoblotting. Infected cardiomyocytes were harvested 24 hours after infection in SDS denaturing sample buffer, sonicated and boiled for 10 minutes, and quantitated using the Bradford assay. Mouse whole heart lysates were generated from flash frozen hearts pulverized in a mortar and pestle then resuspended in SDS denaturing sample buffer, sonicated, boiled for 10 minutes and quantitated using Bradford assay. […] Blots were blocked in 3% BSA for 1 hour, and probed with primary antibodies (PIM-1 (Cell Signaling Technology), c-jun (Cell Signaling Technology), HISTONE3™ (Cell Signaling Technology), GFP (Molecular Probes), bcl-2 (Santa Cruz), bcl-XL (Cell Signaling Technology), PHOSPHO-BADS112™ (Biosource) AKT (Cell Signaling Technology), GAPDH (Research Diagnostics Inc.), PHOSPHO-AKTS473™ (Cell Signaling Technology), total PARP (Biosource), cleaved PARP (Biosource), and cleaved caspase3 (Cell Signaling Technologies)) diluted in blocking solution overnight at 4° C. Blots were washed in TBS-0.5% Tween three times and probed with fluorescent or alkaline phosphatase conjugated secondary antibodies diluted 1:5000 in blocking solution for 1 hour at room temperature followed by three washes in TBS-0.5% Tween. […] All quantitation is based on standardization to loading controls.
Immunohistochemistry. Hearts were fixed and embedded and cardiomyocytes fixed and permeabilized as described previously^12. Staining of cultured neonatal rat cardiomyocytes was performed with antibodies described above diluted 1:25 in PBS containing 10% horse serum overnight at 4° C. Slides were washed in PBS and probed with fluorescent conjugated secondary antibodies (1:100) for one hour at room temperature, and Texas Red phalloidin (1:50 Molecular Probes) to identify actin filaments. Slides were washed three times in PBS, and stained for 30 minutes with TOPRO-3™ (1:5000 Molecular Probes) to identify nuclei, washed once and cover-slipped using […]™ (Vectra Labs). Paraffin embedded samples were cut at 4 μm and deparaffinized through a standard series of Xylene and graded Ethanol steps to water. Antigen retrieval was performed in 10 mM Citrate pH6.0. PIM-1 and phospho-AKT signals were amplified using the TYRAMIDE AMPLIFICATION KIT™ (Perkin Elmer) with primary concentrations of 1:500 for both antibodies, and secondaries 1:3000. Slides were washed following the amplification process, and stained with TOPRO-3 (Molecular Probes) to identify nuclei, washed and cover-slipped with […]™ (Vectra Labs). Confocal imaging of stained slides was performed on a Leica LCS confocal microscope. For comparison purposes, all slides were treated identically and scanned using the same settings in each experiment.

[2] = system: neonatal rat cardiomyocytes (NRCMs); test: Endothelin-1 induced hypertrophy, cell surface area of neonatal rat cardiomyocytes; assay type: cell-based; conditions: 10 nM for 1 hour prior to 48 hour incubation with ET-1; compared to ET-1 stimulated cells without inhibitor
Experimental: The impact of Pim-wt overexpression upon cardiomyocyte hypertrophy was initially examined using neonatal rat cardiomyocytes (NRCMs) infected with adenoviruses encoding EGFP-Pim-wt or EGFP protein followed by stimulation with endothelin-1 (ET-1) for 24 hours.
Neonatal rat cardiomyocyte cultures were prepared as described previously (10).

[3] = system: protein phosphatase 2A; conditions: cited from earlier work

Row | Molecule | PIM-1 protein level (immunoblot) [1] | induction of PIM-1 expression [1] | PIM-1 immunoreactivity by confocal microscopy [1] | further results
1 | CCCCCCCCCCCCCC(=O)O[C@@H]1[C@@H](C)[C@@]2(O)[C@@H](C=C(CO)C[C@]3(O)C(=O)C(C)=C[C@@H]23)[C@@H]2C(C)(C)[C@]12OC(C)=O [PMA] | significantly increased PIM-1 expression; also recorded: Induction is evident | 2.3 fold | induced PIM-1 immunoreactivity | –
2 | COC[C@H]1OC(=O)c2coc3c2[C@@]1(C)C1=C(C3=O)[C@@H]2CCC(=O)[C@@]2(C)C[C@H]1OC(C)=O [wortmannin] | – | – | – | reduction of PIM-1 expression in response to IGF-1 treatment ([1]; in the presence of the inhibitor or inactivated AKT): 4.0 fold
3 | Insulin-like Growth Factor [IGF-1] | significantly increased PIM-1 expression; also recorded: Induction is evident | 2.7 fold | induced PIM-1 immunoreactivity | –
4 | O=c1c(O)c(-c2ccc(O)c(O)c2)oc2cc(O)c(O)c(O)c12 [quercetagetin] | – | – | – | cell surface of Pim-1 expressing NRCM cultures [2]: significantly larger surface
5 | C=C1[C@@H](O)[C@@H]2O[C@]3(CC[C@H](/C=C/[C@@H](C)[C@@H]4CC(C)=C[C@@]5(O[C@H](C[C@@](C)(O)C(=O)O)CC[C@H]5O)O4)O3)CC[C@H]2O[C@@H]1[C@@H](O)C[C@H](C)[C@H]1O[C@@]2(CCCCO2)CC[C@H]1C [Okadaic acid] | – | – | – | effect on negative regulation of PIM-1 by protein phosphatase 2A [3]: inhibit or block negative regulation of PIM-1 by protein phosphatase 2A
6 | Leukemia Inhibitory Factor [LIF] | significantly increased PIM-1 expression | 2.8 fold | induced PIM-1 immunoreactivity | –
7 | C[C@@H]1C[C@H]2[C@@H]3CCC4=CC(=O)C=C[C@]4(C)[C@@]3(F)[C@@H](O)C[C@]2(C)[C@@]1(O)C(=O)CO [dexamethasone] | – | 2.0 fold | – | –
8 | endothelin-1 | little or no increase; also recorded: did not markedly increase Pim-1 protein expression | – | not induced | –
9 | CNC[C@H](O)c1cccc(O)c1 [phenylephrine] | did not markedly increase Pim-1 protein expression | – | not induced | PIM-1 protein level (immunoblot) ([1]; listed as phenyl-ephedrine): little or no increase
10 | C=C[C@@]1(C)CC(=O)[C@]2(O)[C@@]3(C)[C@@H](O)CCC(C)(C)[C@@H]3[C@H](O)[C@H](OC(C)=O)[C@@]2(C)O1 [forskolin] | – | – | – | reduction of PIM-1 expression ([1]; versus control cultures): 45%
11 | SV40 small T antigen: viral protein said to block negative regulation of PIM-1 by protein phosphatase 2A (protein, UniProt P03081 1-174, looked up) Small t antigen: MDKVLNREESLQLMDLLGLERSAWGNIPLMRKAYLKKCKEFHPDKGGDEEKMKKMNTLYKKMEDGVKYAHQPDFGGFWDATEVFASSLNPGVDAMYCKQWPECAKKMSANCICLLCLLRMKHENRKLYRKDPLVWVDCYCFDCFRMWFGLDLCEGTLLLWCDIIGQTTYRDLKL | – | – | – | effect on negative regulation of PIM-1 by protein phosphatase 2A [3]: inhibit or block negative regulation of PIM-1 by protein phosphatase 2A
